Assay results: patent publication US20090253709A1 (NATIONAL DEFENSE MEDICAL CENTER, priority 2008, published 2009)
Where two headings read alike, the source gives them in different places.

Legend:
hTERT expression = assay: SEAP assay in hTERT-BJ1-PTERT(3.4)-SEAP cells; format: cell-based; conditions: Homo sapiens, read-out: SEAP (Inhibition μM ± SD)
Description: A total of 2×10^3 hTERT-BJ1-PTERT(3.4)-SEAP cells were seeded in the 96-well cell culture plate, and incubated with DMEM (GIBCO®)/glucose mixture and Medium 199 (GIBCO®)/10% FBS/1 mM sodium pyruvate (GIBCO®)/4 mM L-glutamine (GIBCO®) mixture at a ratio of 4:1 at 37° C. for 24 hours. When the cells were attached in the bottom of the well, the seriously-diluted compounds with different concentrations ([…]) were treated with the cells for 48 hours, and the PTERT(3.4)-SEAP cells without drug treatment were being the control. After 48 hours of drug treatment, the cultured medium were collected for performing the analysis of SEAP activity. The cells were washed with 1×PBS once immediately, and the MTT assay was performed to compare the compounds with the relative toxicity or the influence to the proliferation and activity.
The cellular medium after the cellular incubation was transferred into the eppondorf tube, and the activity of endogeneous alkaline phosphatase was inactivated at 65° C. for 10 minutes. After centrification, the mixture was obtained by mixing 50 μl of the supernatant with the equal volume of the SEAP buffer. The mixture and the substrate (120 mM of p-nitrophenylphosphate) were preheated at 37° C. for 10 minutes respectively, and the mixture and the substrate were mixed at a ratio of 1:10 and reacted at 37° C. The absorbance of visible light at 405 nm was determined at the appropriate time intervals, and the enzymatic activity of SEAP was represented by the speed of the increasing absorbance at 405 nm.

MTT assay in H1299 cells = format: cell-based; conditions: human, H1299 cells (H1299/PhTERT-driven SEAP reporter system), H1299, read-out: MTT (Inhibition μM ± SD); for viability at 24 h, 1 µM: compound concentration 1 μM; for viability at 24 h, 10 µM: compound concentration 10 μM; for viability at 24 h, 100 µM: compound concentration 100 μM
Description: H1299 is a non-small cell lung cancer cell line with telomerase activity. The cell extract of H1299 cell lines can be used for selecting the telomerase activity inhibitors in vitro and the telomerase activity-inhibited substances in vivo. H1299 cell line was incubated with RPMI 1640 medium supplemented with 10% of fetal bovine serum (FBS). A total of 2×10^3 […] cells were seeded in the 96-well cell culture plate, and incubated with DMEM (GIBCO®)/glucose mixture and Medium 199 (GIBCO®)/10% FBS/1 mM sodium pyruvate (GIBCO®)/4 mM L-glutamine (GIBCO®) mixture at a ratio of 4:1 at 37° C. for 24 hours. […] After 48 hours of drug treatment, the cultured medium were collected for performing the analysis of SEAP activity. The cells were washed with 1×PBS once immediately, and the MTT assay was performed to compare the compounds with the relative toxicity or the influence to the proliferation and activity. Mitochondria is the place for cellular respiration, and there are many reductive reactions catalyzed by dehydrogenases. MTT is a water-soluble yellow compound, and the […] will be formed after reduction. This crystal can be dissolved in the organic solvent, and has high absorbance at the wavelength of 570 nm. The higher cellular activity or more cell numbers, the more generated crystal violets. Therefore, the cellular activity and cell number can be obtained by the MTT assay. MTT solution was prepared by dissolving MTT powder in PBS solution to achieve 5 mg/ml, filtrated and stored at 4° C. Lysis buffer contained 20% (w/v) of SDS in 50% of N,N-dimethylformamide (DMF, Riedel-deHaën). After the cells were incubated in the 96-well culture plate, the original medium was discarded, 100 μl of the fresh serum-free medium per well and 25 μl of MTT solution per well were added in respectively, and the cells were further incubated in the CO2 incubator at 37° C. for 4 hours. Then, 100 μl of lysis buffer per well was added in and incubated overnight in the CO2 incubator at 37° C. The absorbance at 570 nm was determined by the ELISA reader. The selection of telomerase inhibitors of the anthraquinone compounds provided in the present invention was performed by the […]-driven SEAP system. SEAP is the communication gene in this drug selection model. The SEAP inhibition was shown as follows. […] Subsequently, the linear slope of absorbance to the measuring time was calculated, and the variance of absorbance at 405 nm per minute was represented and compared with the SEAP-producing result of drug-untreated H1299 cells. In addition, the influence of the cell-treated drug solution to the cellular proliferation and the drug toxicity to the cells were considered, and the cellular growth was evaluated by the MTT assay. The drug-treated cells were analyzed by the SEAP assay and the data analysis of MTT assay at the same time. Both results were compared so as to delete the influence of cell number or the activity to SEAP, and the dose-dependent phenomenon could be anticipated in the range of drug concentration designed by the laboratory. […] Since the chemically-synthetic drugs have colors thereon, the SEAP value of drug-treatment without cells was also determined to be the background value which was deducted while treating with the drugs. The candidate drug for inhibiting telomerase on the hTERT gene expression level was evaluated and anticipated.

[1] = BJ1, compound concentration 1 μM
[2] = BJ1, compound concentration 10 μM
[3] = BJ1, compound concentration 100 μM

Structure (SMILES) | activity at 1 µM (hTERT expression; [1]) | activity at 10 µM (hTERT expression; [2]) | activity at 100 µM (hTERT expression; [3]) | viability at 24 h, 1 µM (MTT assay in H1299 cells) | viability at 24 h, 10 µM (MTT assay in H1299 cells) | viability at 24 h, 100 µM (MTT assay in H1299 cells) | activity at 1 µM (hTERT expression) | activity at 10 µM (hTERT expression) | activity at 100 µM (hTERT expression)
O=C(CCCCl)Nc1ccc2c(c1)C(=O)c1cc(NC(=O)CCCCl)ccc1C2=O [Compound 25, 2,7-Bis(4-chlorobutyramido)anthraquinone] | 13 ± 58% | 42 ± 45% | 75 ± 16% | 84 ± 18% | 40 ± 2% | 22 ± 2% |  |  | 
O=C1c2ccc(NC(=O)C3CC3)cc2C(=O)c2cc(NC(=O)C3CC3)ccc21 [Compound 32, 2,7-Bis(cyclopropanecarbonamido)anthraquinone] |  |  |  | 46 ± 14% | 36 ± 13% | 43 ± 15% |  |  | 
CCNCCC(=O)Nc1ccc2c(c1)C(=O)c1cc(NC(=O)CCNCC)ccc1C2=O [Compound 22, 2,7-Bis[3-(ethylamino)propionamido]anthraquinone] |  |  |  | 86 ± 10% | 59 ± 3% | 34 ± 7% | 211 ± 38% | 217 ± 133% | 97 ± 87%
O=C1c2ccc([N+](=O)[O-])cc2C(=O)c2cc([N+](=O)[O-])ccc21 [Compound 1, 2,7-dinitroanthraquinone] | 55 ± 21% | 60 ± 35% | 65 ± 23% | 97 ± 15% | 95 ± 8% | 69 ± 10% |  |  | 
CCCNCC(=O)Nc1ccc2c(c1)C(=O)c1cc(NC(=O)CNCCC)ccc1C2=O [Compound 9, 2,7-Bis[2-(propylamino)acetamido]anthraquinone] |  |  |  | 89 ± 15% | 54 ± 11% | 14 ± 10% |  |  | 
CN(C)CC(=O)Nc1ccc2c(c1)C(=O)c1cc(NC(=O)CN(C)C)ccc1C2=O [Compound 8, 2,7-Bis[2-(dimethylamino)acetamido]anthraquinone] |  |  |  | 92 ± 13% | 55 ± 9% | 15 ± 12% | 96 ± 1% | 44 ± 5% | 3 ± 13%
Nc1ccc2c(c1)C(=O)c1cc(N)ccc1C2=O [Compound 2, 2,7-Diaminoanthraquinone] |  |  |  | 90 ± 17% | 80 ± 16% | 65 ± 10% |  |  | 
O=C(CCN1CCNCC1)Nc1ccc2c(c1)C(=O)c1cc(NC(=O)CCN3CCNCC3)ccc1C2=O [Compound 24, 2,7-Bis[3-(piperazino)propionamido]anthraquinone] | 163 ± 22% | 118 ± 26% | 131 ± 29% | 97 ± 8% | 94 ± 8% | 102 ± 13% |  |  | 
CCN(CC)CC(=O)Nc1ccc2c(c1)C(=O)c1cc(NC(=O)CN(CC)CC)ccc1C2=O [Compound 4, 2,7-Bis[2-(diethylamino)acetamido]anthraquinone] | 26 ± 4% | 131 ± 57% | 116 ± 34% | 101 ± 8% | 47 ± 7% | 25 ± 3% |  |  | 
CC(C)NCC(=O)Nc1ccc2c(c1)C(=O)c1cc(NC(=O)CNC(C)C)ccc1C2=O [Compound 13, 2,7-Bis[2-(isopropylamino)acetamido]anthraquinone] |  |  |  | 78 ± 10% | 26 ± 15% | 6 ± 11% | 79 ± 14% | 55 ± 19% | 45 ± 11%
O=C(Nc1ccc2c(c1)C(=O)c1cc(NC(=O)c3ccccc3)ccc1C2=O)c1ccccc1 [Compound 29, 2,7-Bis(benzoamido)anthraquinone] | 89 ± 2% | 72 ± 8% | 36 ± 13% | 71 ± 24% | 47 ± 13% | 41 ± 30% |  |  | 
O=C(CN1CCNCC1)Nc1ccc2c(c1)C(=O)c1cc(NC(=O)CN3CCNCC3)ccc1C2=O [Compound 12, 2,7-Bis[2-(piperazino)acetamido]anthraquinone] |  |  |  | 88 ± 19% | 85 ± 13% | 88 ± 11% |  |  | 
O=C1c2ccc(NC(=O)C3CCCCC3)cc2C(=O)c2cc(NC(=O)C3CCCCC3)ccc21 [Compound 34, 2,7-Bis(cyclohexanecarbonamido)anthraquinone] | 14 ± 67% | 14 ± 53% | 22 ± 7% | 90 ± 3% | 63 ± 13% | 52 ± 16% |  |  | 
CCC(=O)Nc1ccc2c(c1)C(=O)c1cc(NC(=O)CC)ccc1C2=O [Compound 27, 2,7-Bis(propionamido)anthraquinone] | 78 ± 10% | 64 ± 8% | 51 ± 8% | 70 ± 25% | 38 ± 17% | 35 ± 15% |  |  | 
CN1CCN(CCC(=O)Nc2ccc3c(c2)C(=O)c2cc(NC(=O)CCN4CCN(C)CC4)ccc2C3=O)CC1 [Compound 23, 2,7-Bis[3-(N-methylpiperazino)propionamido]anthraquinone] |  | 138 ± 115% | 232 ± 66% | 95 ± 18% | 80 ± 15% | 39 ± 6% |  |  | 
O=C(CCc1ccccc1)Nc1ccc2c(c1)C(=O)c1cc(NC(=O)CCc3ccccc3)ccc1C2=O [Compound 31, 2,7-Bis(phenylpropionamido)anthraquinone] | 74 ± 29% | 92 ± 45% | 43 ± 75% | 102 ± 11% | 94 ± 13% | 76 ± 18% |  |  | 
CCCC(=O)Nc1ccc2c(c1)C(=O)c1cc(NC(=O)CCC)ccc1C2=O [Compound 28, 2,7-Bis(butyramido)anthraquinone] |  |  |  | 93 ± 14% | 59 ± 13% | 40 ± 15% |  |  | 
CCCNCCC(=O)Nc1ccc2c(c1)C(=O)c1cc(NC(=O)CCNCCC)ccc1C2=O [Compound 21, 2,7-Bis[3-(propylamino)propionamido]anthraquinone] |  | 133 ± 48% | 217 ± 40% | 80 ± 15% | 50 ± 6% | 13 ± 10% |  |  | 
O=C(CN1CCCC1)Nc1ccc2c(c1)C(=O)c1cc(NC(=O)CN3CCCC3)ccc1C2=O [Compound 6, 2,7-Bis[2-(pyrrolidino)acetamido]anthraquinone] |  |  |  | 99 ± 9% | 52 ± 13% | 23 ± 14% |  |  | 
O=C(CCCl)Nc1ccc2c(c1)C(=O)c1cc(NC(=O)CCCl)ccc1C2=O [Compound 15, 2,7-Bis(3-chloropropionamido)anthraquinone] |  |  |  | 77 ± 13% | 44 ± 15% | 29 ± 11% |  |  | 
